Source: PubChem BioAssay (NCI)
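Method: 48-hour compound exposure of cells in 96-well plates, five concentrations, linear interpolation of endpoints. TGI marks complete inhibition of growth.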

What was measured:
Test in all cases: NCI tumour cell line growth inhibition, 48 h
A549 NSCLC = system: A549 NSCLC
ACHN renal = system: ACHN renal
BT-549 breast = system: BT-549 breast
DU-145 prostate = system: DU-145 prostate
HT29 colon = system: HT29 colon
KM12 colon = system: KM12 colon
NCI-H226 lung = system: NCI-H226 lung
NCI-H522 lung = system: NCI-H522 lung
NCI/ADR-RES ovarian = system: NCI/ADR-RES ovarian
SK-MEL-5 melanoma = system: SK-MEL-5 melanoma
SK-OV-3 ovarian = system: SK-OV-3 ovarian

CC(=O)N[C@@H](Cc1ccc(O)cn1)C(=O)NCc1cccc(Cl)c1
TGI (A549 NSCLC): > 100 µM
TGI (ACHN renal): > 100 µM
TGI (BT-549 breast): > 100 µM
TGI (DU-145 prostate): > 100 µM
TGI (HT29 colon): > 100 µM
TGI (KM12 colon): > 100 µM
TGI (NCI-H226 lung): > 100 µM
TGI (NCI-H522 lung): > 100 µM
TGI (NCI/ADR-RES ovarian): > 100 µM
TGI (SK-MEL-5 melanoma): > 100 µM
TGI (SK-OV-3 ovarian): > 100 µM

NC(CCC(=O)O)C(=O)N1CCN(c2nc(N3CCCC3)c3nc(Cl)c(NCc4ccccc4)nc3n2)CC1 (stereo not given)
TGI (A549 NSCLC): 26.1 µM
TGI (ACHN renal): 28.8 µM
TGI (BT-549 breast): 25.4 µM
TGI (DU-145 prostate): 21.9 µM
TGI (HT29 colon): 25.5 µM
TGI (KM12 colon): 40.3 µM
TGI (NCI-H226 lung): 32.9 µM
TGI (NCI-H522 lung): 34.5 µM
TGI (NCI/ADR-RES ovarian): 46.2 µM
TGI (SK-MEL-5 melanoma): 20.9 µM
TGI (SK-OV-3 ovarian): 32.9 µM

CC(=O)OC1(C)C=CC(=O)C=C1
TGI (A549 NSCLC): > 100 µM
TGI (ACHN renal): 34.7 µM
TGI (BT-549 breast): > 100 µM
TGI (DU-145 prostate): > 100 µM
TGI (HT29 colon): > 100 µM
TGI (KM12 colon): > 100 µM
TGI (NCI-H226 lung): 73 µM
TGI (NCI-H522 lung): 24.2 µM
TGI (NCI/ADR-RES ovarian): 26.3 µM
TGI (SK-MEL-5 melanoma): > 100 µM
TGI (SK-OV-3 ovarian): > 100 µM

CC(C)(C)C1=CC(=C(c2ccc(-c3c4nc(c(-c5ccc(C(=C6C=C(C(C)(C)C)C(=O)C(C(C)(C)C)=C6)c6cc(C(C)(C)C)c(O)c(C(C)(C)C)c6)cc5)c5ccc([nH]5)c(-c5ccc(C(=C6C=C(C(C)(C)C)C(=O)C(C(C)(C)C)=C6)c6cc(C(C)(C)C)c(O)c(C(C)(C)C)c6)cc5)c5nc(c(-c6ccc(C(=C7C=C(C(C)(C)C)C(=O)C(C(C)(C)C)=C7)c7cc(C(C)(C)C)c(O)c(C(C)(C)C)c7)cc6)c6ccc3[nH]6)C=C5)C=C4)cc2)c2cc(C(C)(C)C)c(O)c(C(C)(C)C)c2)C=C(C(C)(C)C)C1=O
TGI (A549 NSCLC): > 100 µM
TGI (ACHN renal): > 100 µM
TGI (BT-549 breast): > 100 µM
TGI (DU-145 prostate): > 100 µM
TGI (HT29 colon): > 100 µM
TGI (KM12 colon): > 100 µM
TGI (NCI-H226 lung): > 100 µM
TGI (NCI-H522 lung): > 100 µM
TGI (NCI/ADR-RES ovarian): > 100 µM
TGI (SK-MEL-5 melanoma): > 100 µM
TGI (SK-OV-3 ovarian): > 100 µM

CN1C2CCC1CC(CCNC(c1ccccc1)c1ccccc1)C2 (stereo not given)
TGI (A549 NSCLC): > 100 µM
TGI (ACHN renal): > 100 µM
TGI (BT-549 breast): > 100 µM
TGI (DU-145 prostate): > 100 µM
TGI (HT29 colon): > 100 µM
TGI (KM12 colon): > 100 µM
TGI (NCI-H226 lung): > 100 µM
TGI (NCI-H522 lung): 85.7 µM
TGI (NCI/ADR-RES ovarian): > 100 µM
TGI (SK-MEL-5 melanoma): 25.5 µM
TGI (SK-OV-3 ovarian): > 100 µM
